Earlier results, collected in patent publication US9625464B2, “Fluorescent probe for plasma cell identification and isolation, and plasma cell identification or isolation method using the probe” (NATIONAL UNIVERSITY CORPORATION UNIVERSITY OF TOYAMA, priority 2010, dated 2017).

Biological target: ATP-sensitive K+ channel
Settings: read-out: dissociation constant to ATP-sensitive K+ channel

Question: For `COc1ccc(Cl)cc1C(=O)NCCc1ccc(S(=O)(=O)NC(=O)NC2CCCCC2)cc1` [glibenclamide], which Kd is on record?
Answer: 0.1 to 3.6 nM
